Source: BigSolDB 2.1

In the case of `COc1ccc(C(=O)O)cc1`, the solubility (mole fraction) (in acetonitrile, 273.15 K) was 0.00105, the solubility (mole fraction) (in acetonitrile, 278.15 K) was 0.00122 and the solubility (mole fraction) (in acetonitrile, 283.15 K) was 0.00156. It also gave a solubility (mole fraction) (in acetonitrile, 288.15 K) of 0.00194, a solubility (mole fraction) (in acetonitrile, 293.15 K) of 0.00231 and a solubility (mole fraction) (in acetonitrile, 298.15 K) of 0.00281. For the same compound, the solubility (mole fraction) (in acetonitrile, 303.15 K) was 0.00351, the solubility (mole fraction) (in acetonitrile, 308.15 K) was 0.00419 and the solubility (mole fraction) (in acetonitrile, 313.15 K) was 0.00492. It also gave a solubility (mole fraction) (in acetonitrile, 318.15 K) of 0.00603, a solubility (mole fraction) (in chloroform, 273.15 K) of 0.00116 and a solubility (mole fraction) (in chloroform, 278.15 K) of 0.00135. The solubility (mole fraction) (in chloroform, 283.15 K) was 0.00173, the solubility (mole fraction) (in chloroform, 288.15 K) was 0.0021 and the solubility (mole fraction) (in chloroform, 293.15 K) was 0.00251. It also gave a solubility (mole fraction) (in chloroform, 298.15 K) of 0.00299, a solubility (mole fraction) (in chloroform, 303.15 K) of 0.00383 and a solubility (mole fraction) (in chloroform, 308.15 K) of 0.0045. It also gave a solubility (mole fraction) (in chloroform, 313.15 K) of 0.00538, a solubility (mole fraction) (in chloroform, 318.15 K) of 0.00637 and a solubility (mole fraction) (in ethanol, 273.15 K) of 0.00549. The solubility (mole fraction) (in ethanol, 278.15 K) was 0.00653, the solubility (mole fraction) (in ethanol, 283.15 K) was 0.00757 and the solubility (mole fraction) (in ethanol, 288.15 K) was 0.00887. For the same compound, the solubility (mole fraction) (in ethanol, 293.15 K) was 0.0101, the solubility (mole fraction) (in ethanol, 298.15 K) was 0.0118 and the solubility (mole fraction) (in ethanol, 303.15 K) was 0.0136. For the same compound, the solubility (mole fraction) (in ethanol, 308.15 K) was 0.0163, the solubility (mole fraction) (in ethanol, 313.15 K) was 0.0188 and the solubility (mole fraction) (in ethanol, 318.15 K) was 0.0221. It also gave a solubility (mole fraction) (in ethyl acetate, 273.15 K) of 0.0053, a solubility (mole fraction) (in ethyl acetate, 278.15 K) of 0.00601 and a solubility (mole fraction) (in ethyl acetate, 283.15 K) of 0.00728. For the same compound, the solubility (mole fraction) (in ethyl acetate, 288.15 K) was 0.00853, the solubility (mole fraction) (in ethyl acetate, 293.15 K) was 0.00954 and the solubility (mole fraction) (in ethyl acetate, 298.15 K) was 0.0112. The solubility (mole fraction) (in ethyl acetate, 303.15 K) was 0.0128, the solubility (mole fraction) (in ethyl acetate, 308.15 K) was 0.0142 and the solubility (mole fraction) (in ethyl acetate, 313.15 K) was 0.0167. It also gave a solubility (mole fraction) (in ethyl acetate, 318.15 K) of 0.0207, a solubility (mole fraction) (in isopropanol, 273.15 K) of 0.00377 and a solubility (mole fraction) (in isopropanol, 278.15 K) of 0.00489. The solubility (mole fraction) (in isopropanol, 283.15 K) was 0.00597, the solubility (mole fraction) (in isopropanol, 288.15 K) was 0.00722 and the solubility (mole fraction) (in isopropanol, 293.15 K) was 0.00872. The solubility (mole fraction) (in isopropanol, 298.15 K) was 0.0105, the solubility (mole fraction) (in isopropanol, 303.15 K) was 0.0127 and the solubility (mole fraction) (in isopropanol, 308.15 K) was 0.0152. The solubility (mole fraction) (in isopropanol, 313.15 K) was 0.0176, the solubility (mole fraction) (in isopropanol, 318.15 K) was 0.0211 and the solubility (mole fraction) (in methanol, 273.15 K) was 0.00454. For the same compound, the solubility (mole fraction) (in methanol, 278.15 K) was 0.00526, the solubility (mole fraction) (in methanol, 283.15 K) was 0.00632 and the solubility (mole fraction) (in methanol, 288.15 K) was 0.00752. The solubility (mole fraction) (in methanol, 293.15 K) was 0.00857, the solubility (mole fraction) (in methanol, 298.15 K) was 0.0102 and the solubility (mole fraction) (in methanol, 303.15 K) was 0.0117. It also gave a solubility (mole fraction) (in methanol, 308.15 K) of 0.0138, a solubility (mole fraction) (in methanol, 313.15 K) of 0.0161 and a solubility (mole fraction) (in methanol, 318.15 K) of 0.0193. It also gave a solubility (mole fraction) (in methyl acetate, 273.15 K) of 0.00527, a solubility (mole fraction) (in methyl acetate, 278.15 K) of 0.00611 and a solubility (mole fraction) (in methyl acetate, 283.15 K) of 0.0073. The solubility (mole fraction) (in methyl acetate, 288.15 K) was 0.00849, the solubility (mole fraction) (in methyl acetate, 293.15 K) was 0.00968 and the solubility (mole fraction) (in methyl acetate, 298.15 K) was 0.0112. It also gave a solubility (mole fraction) (in methyl acetate, 303.15 K) of 0.0131, a solubility (mole fraction) (in methyl acetate, 308.15 K) of 0.0153 and a solubility (mole fraction) (in methyl acetate, 313.15 K) of 0.0176. For the same compound, the solubility (mole fraction) (in methyl acetate, 318.15 K) was 0.0213, the solubility (mole fraction) (in n-propanol, 273.15 K) was 0.00455 and the solubility (mole fraction) (in n-propanol, 278.15 K) was 0.00527. For the same compound, the solubility (mole fraction) (in n-propanol, 283.15 K) was 0.00631, the solubility (mole fraction) (in n-propanol, 288.15 K) was 0.00754 and the solubility (mole fraction) (in n-propanol, 293.15 K) was 0.00895. It also gave a solubility (mole fraction) (in n-propanol, 298.15 K) of 0.0106, a solubility (mole fraction) (in n-propanol, 303.15 K) of 0.0127 and a solubility (mole fraction) (in n-propanol, 308.15 K) of 0.0149. It also gave a solubility (mole fraction) (in n-propanol, 313.15 K) of 0.0174 and a solubility (mole fraction) (in n-propanol, 318.15 K) of 0.0201.
